The test system of assay [1] is primary normal human melanocytes (R6-NHEM-2). Nature of the assay: Melanogenesis assay (melanin content after 240 hours incubation, OD at 405 nm against melanin standard). The format is cell-based. As to conditions: for Melanin: 240 hours incubation. The procedure: The action of the compounds of the formula I as tanning agents is tested through the ability to increase melanin synthesis. The reference used is kojic acid, which acts on melanin synthesis and prevents a possible brown coloration of the skin. It can be seen from Table 1 that the compounds Ia to 1 g according to the invention are distinguished by the fact that—after topical application—they induce the formation of skin-inherent pigments in the skin, increase melanin synthesis in the skin and in this way produce enhanced tanning of the skin. They have no adverse health effects, are non-irritant and easy to handle, and the resultant hue naturally corresponds to that of the natural healthy skin colour. The tanning obtained is light-fast and cannot be washed off since it corresponds to natural tanning. To this end, primary normal human melanocytes (R6-NHEM-2)* are cultivated in 24 microtitre plates (96-well, 120,000 cells per tube). Two additional plates are carried out, one for evaluation of the viability of the cells (standard MTT assay) and a second for protein investigation (using a […] standard protocol). After 50% confluence, the culture medium is replaced by fresh culture medium which comprises either the control solution (KA or IBMX) or the 7 solutions to be investigated. Each experiment is repeated 3 times. The cells are incubated at 37° C. (and 5% CO2) for 240 hours, during which the medium is changed every 3 days. After incubation, monolayers are rinsed, the cells are destroyed, and melanin is extracted by means of a 0.5 M NaOH solution. *NHEM-2=normal human epidermal melanocytes (cell type) The optical density (OD) of each experimentally determined value is measured at 405 nm against the melanin standard (standard curve 0.39 to 100 μg/ml of melanin, Sigma M8631). The measurement results are quoted in μg/ml of melanin and in percent of the negative untreated control.

Assay [2] is described as follows: Tanning activity of intermediates or precursors (statement, no method given).
Setting [3] is: Homo sapiens, Melanocyte, 240 h, 200 μM, percent of the negative untreated control.
The mark [4] stands for this setting: Homo sapiens, Melanocyte, 240 h, 8 μM, percent of the negative untreated control.
Where [5] appears, read: Homo sapiens, Melanocyte, 240 h, 40 μM, percent of the negative untreated control.
Setting [6] is: Homo sapiens, Melanocyte, 240 h, 1.6 μM, percent of the negative untreated control.

In the case of `CC(C)Cn1c(=O)n(C)c(=O)c2[nH]cnc21` [IBMX, 3-isobutyl-1-methylxanthine, reference compound], the Melanin in assay [1] (200 μM) was found to be 15.39 µg/mL. The activity at 200 µM in assay [1] (setting [3]) was determined as 166%.
On to `COCC(=O)c1c(COC)oc2cc(O)cc(O)c2c1=O` [IIa, 5,7-dihydroxy-3-(2-methoxyacetyl)-2-methoxymethyl-1-benzopyran-4-one], for which, in assay [2], the “Tanning activity (in words)” value was “have a tanning activity”.
For `COCc1cc(=O)c2c(O)cc(O)cc2o1` [Ia, 5,7-dihydroxy-2-methoxymethylchromen-4-one], the Melanin in assay [1] (50 μM) was found to be 17.87 µg/mL; in assay [1] (150 μM), 22.14 µg/mL; in assay [1] (450 μM) it was 19.98 µg/mL. In addition, in assay [1] (Homo sapiens, Melanocyte, 240 h, 50 μM, percent of the negative untreated control), the activity at 50 µM was 192%. Further, the activity at 150 µM in assay [1] (Homo sapiens, Melanocyte, 240 h, 150 μM, percent of the negative untreated control) was 239%. The activity at 450 µM in assay [1] (Homo sapiens, Melanocyte, 240 h, 450 μM, percent of the negative untreated control) is 215%.
As for `COCc1oc2cc(O)cc(O)c2c(=O)c1OC` [Ib, 5,7-dihydroxy-3-methoxy-2-methoxymethylchromen-4-one], the Melanin came to 20.9 µg/mL in assay [1] (8 μM), 23.7 µg/mL in assay [1] (40 μM) and 25.2 µg/mL in assay [1] (200 μM). Moreover, the activity at 8 µM in assay [1] (setting [4]) amounted to 106%. The activity at 40 µM in assay [1] (setting [5]) was determined as 120%. Further, the activity at 200 µM in assay [1] (setting [3]) is 128%.
Regarding `O=c1c(O)c(CO)oc2cc(O)cc(O)c12` [Ic], the Melanin was 20.8 µg/mL in assay [1] (8 μM), 23.8 µg/mL in assay [1] (40 μM) and 27.6 µg/mL in assay [1] (200 μM). Moreover, the activity at 8 µM in assay [1] (setting [4]) was found to be 105%. Also, in assay [1] (setting [5]), the activity at 40 µM worked out at 120%. Moreover, in assay [1] (setting [3]), the activity at 200 µM was found to be 139%.
With `COc1c(C)oc2cc(O)cc(O)c2c1=O` [Id, 5,7-dihydroxy-3-methoxy-2-methylchromen-4-one], the Melanin was 20.8 µg/mL in assay [1] (1.6 μM), 22.0 µg/mL in assay [1] (8 μM) and 27.0 µg/mL in assay [1] (40 μM). Also, in assay [1] (setting [6]), the activity at 1.6 µM was 106%. The activity at 8 µM in assay [1] (setting [4]) is 112%. In assay [1] (setting [5]), the activity at 40 µM is 137%.
As for `Cc1oc2cc(O)cc(O)c2c(=O)c1O` [Ie, 2-methyl-3,5,7-trihydroxychromen-4-one], the results for the Melanin in assay [1] (8 μM), in assay [1] (40 μM) and in assay [1] (200 μM) were 20.6 µg/mL, 23.9 µg/mL and 27.2 µg/mL, respectively. Besides, in assay [1] (setting [4]), the activity at 8 µM is 104%. In addition, the activity at 40 µM in assay [1] (setting [5]) was 121%. In assay [1] (setting [3]), the activity at 200 µM is 138%.
`O=c1ccoc2cc(O)ccc12` [If, 7-hydroxychromen-4-one]: the Melanin stood at 19.9 µg/mL in assay [1] (1.6 μM), 20.3 µg/mL in assay [1] (8 μM) and 24.7 µg/mL in assay [1] (40 μM). Further, the activity at 1.6 µM in assay [1] (setting [6]) is 100%. Further, the activity at 8 µM in assay [1] (setting [4]) is 102%. Further, the activity at 40 µM in assay [1] (setting [5]) stood at 124%.
Turning to `O=c1ccoc2c(O)c(O)ccc12` [Ig, 7,8-dihydroxychromen-4-one], the Melanin in assay [1] (0.32 μM) stood at 20.7 µg/mL; in assay [1] (1.6 μM), 19.9 µg/mL; in assay [1] (8 μM), 19.8 µg/mL. In assay [1] (Homo sapiens, Melanocyte, 240 h, 0.32 μM, percent of the negative untreated control), the activity at 0.32 µM was 104%. The activity at 1.6 µM in assay [1] (setting [6]) is 100%. Moreover, the activity at 8 µM in assay [1] (setting [4]) is 100%.
With `O=c1cc(CO)occ1O` [Kojic acid, kojic acid, reference compound], in assay [1] (560 μM), the Melanin was found to be 5.55 µg/mL. The activity at 560 µM in assay [1] (Homo sapiens, Melanocyte, 240 h, 560 μM, percent of the negative untreated control) amounted to 55%.

The values above are taken from patent US20090220438A1, “CHROMEN-4-ONE DERIVATIVES AS SELF-TANNING SUBSTANCE” (MERCK PATENT GMBH, priority 2006, published 2009).
